Reference: patent US9308215B2, “Avermectins and milbemycins as anti-mycobacterial agents” (priority 2013, dated 2016)
In brackets after ≈: the same amount, converted by molar mass. Where two headings read alike, the source gives them in different places.

Tested on: M. tuberculosis
Assay: microbe, parasite or virus in culture
Type: cell-based, Mycobacterium tuberculosis
Details: resistance profile INH; for MIC90: Mycobacterium tuberculosis
[1] = read-out: In vitro MIC90, strain BC-MDR2, RIF, PZA, SM, RBT
[2] = read-out: In vitro MIC90, strain BC-MDR3, RIF, RBT
[3] = read-out: In vitro MIC90, strain BC-MDR4, RIF, EMB, PZA, RBT
[4] = read-out: In vitro MIC90, strain BC-MDR5, RIF, PZA, SM, PAS, RBT
[5] = read-out: In vitro MIC90, strain CI5058, RIF
[6] = read-out: In vitro MIC90, strain CI5072, RIF, SM
[7] = read-out: In vitro MIC90, strain CI5297
[8] = read-out: In vitro MIC90, strain CI5305
[9] = read-out: In vitro MIC90, strain CI5324, RIF
[10] = read-out: In vitro MIC90, strain CI5358, EMB, ETH
[11] = read-out: In vitro MIC90, strain CI5400, RIF
[12] = read-out: In vitro MIC90, strain CI5447
[13] = read-out: In vitro MIC90, strain CI5459, EMB, ETH
[14] = read-out: In vitro MIC90, strain CI12081, RIF, SM, EMB, ETH
[15] = read-out: In vitro MIC90, strain KZN5, RIF, SM, EMB, ETH, KM, PZA
[16] = read-out: In vitro MIC90, strain KZN6, RIF, SM, EMB, ETH, KM, PZA
[17] = read-out: In vitro MIC90, strain KZN11, RIF, SM, EMB
[18] = read-out: In vitro MIC90, strain KZN12, RIF, SM, EMB, ETH, KM, PZA
[19] = read-out: In vitro MIC90, strain KZN14, RIF, SM, EMB, ETH, KM, PZA
[20] = read-out: In vitro MIC90, strain KZN15, RIF, SM, EMB, ETH, KM, PZA
[21] = read-out: In vitro MIC90, strain KZN16, RIF, SM, EMB, ETH, KM, PZA
[22] = read-out: In vitro MIC90, strain V2475, RIF

## CO[C@H]1C[C@H](O[C@@H]2/C(C)=C/C[C@@H]3C[C@@H](C[C@]4(CC[C@H](C)[C@@H](C5CCCCC5)O4)O3)OC(=O)[C@@H]3C=C(C)/C(=N/O)[C@H]4OC/C(=C\C=C\[C@@H]2C)[C@]43O)O[C@@H](C)[C@@H]1O [Selamectin]
[1]
  MIC90: 2 µg/mL (≈ 2.6 µM)
[2]
  MIC90: 0.5 to 1 µg/mL (≈ 0.649 to 1.3 µM)
[3]
  MIC90: 2 µg/mL (≈ 2.6 µM)
[4]
  MIC90: 2 µg/mL (≈ 2.6 µM)
[5]
  MIC90: 6 µg/mL (≈ 7.79 µM)
[6]
  MIC90: 3 to 6 µg/mL (≈ 3.9 to 7.79 µM)
[7]
  MIC90: 3 µg/mL (≈ 3.9 µM)
[8]
  MIC90: 1.5 µg/mL (≈ 1.95 µM)
[9]
  MIC90: 3 µg/mL (≈ 3.9 µM)
[10]
  MIC90: 1.5 µg/mL (≈ 1.95 µM)
[11]
  MIC90: 3 µg/mL (≈ 3.9 µM)
[12]
  MIC90: 1.5 µg/mL (≈ 1.95 µM)
[13]
  MIC90: 1.5 to 3 µg/mL (≈ 1.95 to 3.9 µM)
[14]
  MIC90: 3 µg/mL (≈ 3.9 µM)
[15]
  MIC90: 3 µg/mL (≈ 3.9 µM)
[16]
  MIC90: 6 µg/mL (≈ 7.79 µM)
[17]
  MIC90: 3 µg/mL (≈ 3.9 µM)
[18]
  MIC90: 3 µg/mL (≈ 3.9 µM)
[19]
  MIC90: 6 µg/mL (≈ 7.79 µM)
[20]
  MIC90: 3 µg/mL (≈ 3.9 µM)
[21]
  MIC90: 1.5 µg/mL (≈ 1.95 µM)
[22]
  MIC90: 1.5 µg/mL (≈ 1.95 µM)

## CO/N=C1\C[C@]2(C[C@@H]3C[C@@H](C/C=C(\C)C[C@@H](C)/C=C/C=C4\CO[C@@H]5[C@H](O)C(C)=C[C@@H](C(=O)O3)[C@]45O)O2)O[C@H](/C(C)=C/C(C)C)[C@H]1C [Moxidectin]
[1]
  MIC90: 2 to 4 µg/mL (≈ 3.13 to 6.25 µM)
[2]
  MIC90: 1 to 2 µg/mL (≈ 1.56 to 3.13 µM)
[3]
  MIC90: 2 to 4 µg/mL (≈ 3.13 to 6.25 µM)
[4]
  MIC90: 2 to 4 µg/mL (≈ 3.13 to 6.25 µM)
[5]
  MIC90: 6 µg/mL (≈ 9.38 µM)
[6]
  MIC90: 3 µg/mL (≈ 4.69 µM)
[7]
  MIC90: 6 µg/mL (≈ 9.38 µM)
[8]
  MIC90: 1.5 µg/mL (≈ 2.34 µM)
[9]
  MIC90: 3 µg/mL (≈ 4.69 µM)
[10]
  MIC90: 3 µg/mL (≈ 4.69 µM)
[11]
  MIC90: 3 µg/mL (≈ 4.69 µM)
[12]
  MIC90: 0.8 to 1.5 µg/mL (≈ 1.25 to 2.34 µM)
[13]
  MIC90: 1.5 µg/mL (≈ 2.34 µM)
[14]
  MIC90: 3 µg/mL (≈ 4.69 µM)
[15]
  MIC90: 3 µg/mL (≈ 4.69 µM)
[16]
  MIC90: 3 µg/mL (≈ 4.69 µM)
[17]
  MIC90: 3 µg/mL (≈ 4.69 µM)
[18]
  MIC90: 1.5 µg/mL (≈ 2.34 µM)
[19]
  MIC90: 3 to 6 µg/mL (≈ 4.69 to 9.38 µM)
[20]
  MIC90: 3 µg/mL (≈ 4.69 µM)
[21]
  MIC90: 1.5 µg/mL (≈ 2.34 µM)
[22]
  MIC90: 3 µg/mL (≈ 4.69 µM)

## CC[C@H](C)[C@H]1O[C@]2(CC[C@@H]1C)C[C@@H]1C[C@@H](C/C=C(\C)[C@@H](O[C@H]3C[C@H](OC)[C@@H](O[C@H]4C[C@H](OC)[C@@H](O)[C@H](C)O4)[C@H](C)O3)[C@@H](C)/C=C/C=C3\CO[C@@H]4[C@H](O)C(C)=C[C@@H](C(=O)O1)[C@]34O)O2 [Ivermectin]
Strain BC-MDR2, RIF, PZA, SM, RBT
  In vitro MIC90: > 128 µg/mL
Strain BC-MDR3, RIF, RBT
  In vitro MIC90: 1 to 2 µg/mL
Strain BC-MDR4, RIF, EMB, PZA, RBT
  In vitro MIC90: 4 to 16 µg/mL
Strain BC-MDR5, RIF, PZA, SM, PAS, RBT
  In vitro MIC90: 4 to 16 µg/mL
Strain CI5058, RIF
  In vitro MIC90: 6 µg/mL
Strain CI5072, RIF, SM
  In vitro MIC90: >24 µg/mL
Strain CI5297
  In vitro MIC90: 6 µg/mL
Strain CI5305
  In vitro MIC90: 3 µg/mL
Strain CI5324, RIF
  In vitro MIC90: 6 µg/mL
Strain CI5358, EMB, ETH
  In vitro MIC90: 3 µg/mL
Strain CI5400, RIF
  In vitro MIC90: 3 µg/mL
Strain CI5447
  In vitro MIC90: 1.5 µg/mL
Strain CI5459, EMB, ETH
  In vitro MIC90: 3 µg/mL
Strain CI12081, RIF, SM, EMB, ETH
  In vitro MIC90: >24 µg/mL
Strain H37Rv mc^24977
  In vitro MIC90: 6 µg/mL
Strain H37Rv mc^25857, RIF
  In vitro MIC90: 3 µg/mL
Strain H37Rv mc^25858, RIF
  In vitro MIC90: 3 µg/mL
Strain KZN5, RIF, SM, EMB, ETH, KM, PZA
  In vitro MIC90: 6 µg/mL
Strain KZN6, RIF, SM, EMB, ETH, KM, PZA
  In vitro MIC90: 6 µg/mL
Strain KZN11, RIF, SM, EMB
  In vitro MIC90: 3 µg/mL
Strain KZN12, RIF, SM, EMB, ETH, KM, PZA
  In vitro MIC90: 3 µg/mL
Strain KZN14, RIF, SM, EMB, ETH, KM, PZA
  In vitro MIC90: 6 to 12 µg/mL
Strain KZN15, RIF, SM, EMB, ETH, KM, PZA
  In vitro MIC90: 6 µg/mL
Strain KZN16, RIF, SM, EMB, ETH, KM, PZA
  In vitro MIC90: 3 µg/mL
Strain V2475, RIF
  In vitro MIC90: 1.5 µg/mL
